The data set is described as follows: Assessment of chemical stability: normalized purity by RP-HPLC after incubation at 40 °C. The class given is physicochemical. Particulars: normalized purity (T=0 set to 100), 0.2 mg/ml. As to the method:
Samples of each test peptide were dissolved in MilliQ™ water, and the pH of the solution was adjusted to pH 4, pH 7.5 or pH 9, respectively, using either HCI or NaOH. The final peptide concentration was 0.2 mg/ml. Samples were placed in glass vials and incubated at 40 °C. The samples were analyzed by RP-HPLC on a C8 column with gradient elution using an ammonium formate/water eluent system, or on a C18 column with gradient elution using a trifluoroacetic acid/water eluent system. The area-percentage (area-%) of the main peak after incubation time T = t (relative to time T = 0) was determined by UV spectroscopy at 220 nm.
The purity was first determined as follows: Purity(area−%) = (area of main peak/total area of all peaks) × 100. [formula]
The purity was then normalized between time points by setting purity at time 0 (T=0) to 100 for each pH value for a given peptide, as follows: Normalised area−%at time t(T = t) = [area−%(T = t)/area−%(T = 0)] × 100. [formula]
The normalized purity values in Table 2 were determined after 7 days of incubation. Table 2. EC50, chemical stability and fibrillation data for compounds of the invention

We go through 1 molecule from patent publication EP3046573B1, “AMYLIN ANALOGUES” (Zealand Pharma A/S, priority 2013, dated 2015).

Numbered stars: 1 amine (or outer) side, 2 acyl side, 3 side chain; on linkers, the order of the positions; unused ones are H or OH. Bridge positions count the residues as written; N and C are the ends. Square brackets hold non-standard residues; d marks the D form. Peptide text beside a SMILES is read from it. * marks the point of attachment. C20 diacid = O=C(O)CCCCCCCCCCCCCCCCCCC(=O)*; γGlu = O=C(O)[C@H](CCC(=O)[*:2])N[*:1]; NMeI = CC[C@H](C)[C@H](NC)C(=O)O; Sar = CNCC(=O)O

Turning to `CC[C@H](C)[C@@H](C(=O)N[C@@H](CC(C)C)C(=O)N[C@@H](CO)C(=O)N[C@@H](CO)C(=O)N[C@H](C(=O)N[C@@H](CC(N)=O)C(=O)N[C@H](C(=O)NCC(=O)N[C@@H](CO)C(=O)N[C@@H](CC(N)=O)C(=O)N[C@H](C(=O)N1CCC[C@H]1C(N)=O)[C@@H](C)O)C(C)C)[C@@H](C)O)N(C)C(=O)[C@H](C)NC(=O)CN(C)C(=O)[C@H](Cc1ccccc1)NC(=O)[C@H](CC(N)=O)NC(=O)[C@H](CC(N)=O)NC(=O)[C@@H](CO)NC(=O)[C@H](CO)NC(=O)[C@H](Cc1c[nH]cn1)NC(=O)[C@H](Cc1c[nH]cn1)NC(=O)[C@H](CC(C)C)NC(=O)[C@H](Cc1ccccc1)NC(=O)[C@H](CCC(=O)O)NC(=O)[C@H](C)NC(=O)[C@H](CC(C)C)NC(=O)[C@H](CCCNC(=N)N)NC(=O)[C@H](CCC(N)=O)NC(=O)[C@@H](NC(=O)[C@H](C)NC(=O)[C@@H]1CSSC[C@H](NC(=O)[C@H](CCCNC(=N)N)NC(=O)CC[C@H](NC(=O)CCCCCCCCCCCCCCCCCCC(=O)O)C(=O)O)C(=O)N[C@@H](CC(N)=O)C(=O)N[C@@H]([C@@H](C)O)C(=O)N[C@@H](C)C(=O)N[C@@H]([C@@H](C)O)C(=O)N1)[C@@H](C)O` [Compound 31, [19CD]-isoGlu-RC()NTATC()ATQRLAEFLHHS-DSer-NNF-Gly(Me)-A-Ile(Me)-LSSTNVGSNTP-NH2] ({C20 diacid-γGlu}-RCNTATCATQRLAEFLHHS[dS]NNF[Sar]A[NMeI]LSSTNVGSNTP-NH2; disulfide 2-7), the “Chem. stability; 7 days, 40°C pH 4” value (pH 4, 7 days) is 80 area-%. The “Chem. stability; 7 days, 40°C pH 7.5” value (pH 7.5, 7 days) is reported as 66 area-%.
